The results in this text go back to patent US20260365653A1, “IRREVERSIBLE MUTEGFR INHIBITORS” (Bayer Aktiengesellschaft, priority 2022, published 2026).

In experiment [1] the target is T1, mutEGFR (D770_N771insNPG, T790) (Homo sapiens, UniProt P00533, INS770NPG/T790M).
T1 construct: exact insNPG construct not described; in-house EGFR proteins were N-terminal GST fusions from baculovirus/insect cells (borders R669-A1210 given only for WT, insSVD, insASV)
The experiment can be described thus: mutEGFR (D770_N771insNPG, T790) kinase assay. The note with it: Table 2a, D770_N771insNPG. The class given is biochemical. The source says: The different EGFR proteins used in the biochemical kinase activity inhibition assays were generated inhouse by expression in insect cells using Baculo Virus system and subsequent purification as described in the following paragraphs.
The cDNAs encoding the various protein sequences from human EGFR human (P00533) were optimized for expression in eukaryotic cells and synthesized by the GeneArt Technology at Life Technologies.

The target of experiment [2] is T2, mutEGFR (D770_N771insSVD) (Homo sapiens, UniProt P00533, DUP768-770).
T2 construct: GST-EGFR #3 (SVD between D770 and N771); made in house; host or cells: Sf9 insect cells (baculovirus)
Nature of the experiment: Exon20-Mutant-EGFR (D770_N771insSVD) kinase assay (TR-FRET). The note with it: mutEGFR (D770_N771insSVD) kinase assay IC50, Table 2a; D770_N771insSVD; 2 mM ATP. The experiment is classed as biochemical. For orientation: In TR-FRET formats the signal depends on donor and acceptor labels being close together.

The subject of a further experiment is BA/F3 (insSVD) cells. The experiment can be described thus: Ba/F3-EGFR-insSVD cell survival assay (Cell Titer-Glo). The experiment is classed as cell-based. Particulars: Mus musculus, BaF3, 48 h, Table 3a, cell survival, Cell Titer-Glo, with 10 ng/ml EGF, without IL-3. The gist of the method: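 Ba/F3 cells stably expressing retroviral EGFR-insSVD or insSVD T790M, grown without IL-3 on 10 ng/ml EGF, 4000 cells/well. Compound pinned in, 48 h at 37° C. Viability by CellTiter-Glo luminescence.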
On the technique in general: ATP-based viability assays read luminescence as a measure of living cells.

T2 sequence (P00533 with tags, fused parts or gaps DUP768-770): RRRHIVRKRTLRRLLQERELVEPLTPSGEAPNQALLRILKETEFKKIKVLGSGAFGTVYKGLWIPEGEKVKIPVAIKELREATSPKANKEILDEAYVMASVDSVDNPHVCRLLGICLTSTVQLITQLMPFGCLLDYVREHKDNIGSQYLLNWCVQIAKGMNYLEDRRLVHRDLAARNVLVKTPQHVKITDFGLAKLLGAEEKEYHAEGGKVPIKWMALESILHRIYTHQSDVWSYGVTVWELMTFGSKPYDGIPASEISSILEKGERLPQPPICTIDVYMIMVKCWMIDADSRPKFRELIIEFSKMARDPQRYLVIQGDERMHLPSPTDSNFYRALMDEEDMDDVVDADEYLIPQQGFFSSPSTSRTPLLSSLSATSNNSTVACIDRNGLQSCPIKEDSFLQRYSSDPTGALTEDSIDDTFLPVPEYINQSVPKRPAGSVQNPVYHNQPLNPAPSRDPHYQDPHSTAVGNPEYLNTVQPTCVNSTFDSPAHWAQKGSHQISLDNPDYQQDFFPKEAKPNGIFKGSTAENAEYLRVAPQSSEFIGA
T1 sequence (P00533 with tags, fused parts or gaps INS770NPG/T790M limits assumed): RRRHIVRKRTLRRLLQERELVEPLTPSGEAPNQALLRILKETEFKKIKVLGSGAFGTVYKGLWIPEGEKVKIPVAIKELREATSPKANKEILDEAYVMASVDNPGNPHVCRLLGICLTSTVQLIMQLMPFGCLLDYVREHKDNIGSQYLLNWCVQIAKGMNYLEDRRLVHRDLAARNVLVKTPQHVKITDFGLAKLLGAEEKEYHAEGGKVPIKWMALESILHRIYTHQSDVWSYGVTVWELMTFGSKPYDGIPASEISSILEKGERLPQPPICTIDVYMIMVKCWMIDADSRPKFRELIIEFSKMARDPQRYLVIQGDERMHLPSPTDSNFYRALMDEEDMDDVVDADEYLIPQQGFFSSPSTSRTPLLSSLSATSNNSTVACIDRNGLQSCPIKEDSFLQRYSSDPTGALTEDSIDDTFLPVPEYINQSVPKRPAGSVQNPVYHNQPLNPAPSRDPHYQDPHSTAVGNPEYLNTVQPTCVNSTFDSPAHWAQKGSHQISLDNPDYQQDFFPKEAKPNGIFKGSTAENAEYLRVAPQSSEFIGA

For `C=CC(=O)N1CCn2nc(Nc3ccc(OC)c(F)c3)c(-c3ccncc3)c2C1` [Example 96, 1-[2-(3-fluoro-4-methoxyanilino)-3-(pyridin-4-yl)-6,7-dihydropyrazolo[1,5-a]pyrazin-5(4H)-yl]prop-2-en-1-one], the IC50 in experiment [1] stood at 7.96 µM; in experiment [2], 2.03 µM; in the experiment on BA/F3 (insSVD) cells it was 7.93 µM.
In the same order, the values of `C=CC(=O)N1CCn2nc(Nc3ccc(C(F)(F)F)cc3)c(-c3ccncc3)c2C1` [Example 97, 1-[3-(pyridin-4-yl)-2-[4-(trifluoromethyl)anilino]-6,7-dihydropyrazolo[1,5-a]pyrazin-5(4H)-yl]prop-2-en-1-one] are 3.8 µM, 0.626 µM and 4.36 µM.
Regarding `CN(C)C/C=C/C(=O)N1CCn2nc(-c3ccc(F)cc3)c(-c3ccnc4[nH]ccc34)c2C1` [Example 98, (2E)-4-(dimethylamino)-1-[2-(4-fluorophenyl)-3-(1H-pyrrolo[2,3-b]pyridin-4-yl)-6,7-dihydropyrazolo[1,5-a]pyrazin-5(4H)-yl]but-2-en-1-one], the figures for the IC50 (in experiment [1]; in experiment [2]; in the experiment with BA/F3 (insSVD) cells) were 0.0116 µM, 0.0104 µM and 0.209 µM, respectively.
For `Cc1ccc(-c2nn3c(c2-c2ccnc4[nH]ccc24)CN(C(=O)/C=C/CN(C)C)CC3)c(F)c1` [Example 99, (2E)-4-(dimethylamino)-1-[2-(2-fluoro-4-methylphenyl)-3-(1H-pyrrolo[2,3-b]pyridin-4-yl)-6,7-dihydropyrazolo[1,5-a]pyrazin-5(4H)-yl]but-2-en-1-one] the same measures were 0.0571 µM, 0.00572 µM and 0.337 µM.
For `C[C@@H]1Cn2nc(-c3cccc(C#N)c3)c(-c3ccncc3)c2CN1C(=O)/C=C/CN(C)C` [Example 100, 3-[(6R)-5-[(2E)-4-(dimethylamino)but-2-enoyl]-6-methyl-3-(pyridin-4-yl)-4,5,6,7-tetrahydropyrazolo[1,5-a]pyrazin-2-yl]benzonitrile] the same measures were 0.00357 µM, 0.0196 µM and 0.42 µM.
For `C[C@H]1Cn2nc(-c3cccc(C#N)c3)c(-c3ccncc3)c2CN1C(=O)/C=C/CN(C)C` [Example 101, 3-[(6S)-5-[(2E)-4-(dimethylamino)but-2-enoyl]-6-methyl-3-(pyridin-4-yl)-4,5,6,7-tetrahydropyrazolo[1,5-a]pyrazin-2-yl]benzonitrile] the same measures were 0.0035 µM, 0.0168 µM and 0.0446 µM.
For the molecule `C=CC(=O)N1CCn2nc(-c3ccc(C)cc3F)c(-c3ccnc4[nH]ccc34)c2C1` [Example 102, 1-[2-(2-fluoro-4-methylphenyl)-3-(1H-pyrrolo[2,3-b]pyridin-4-yl)-6,7-dihydropyrazolo[1,5-a]pyrazin-5(4H)-yl]prop-2-en-1-one], the IC50 in experiment [1] amounted to 0.0228 µM; in experiment [2], 0.00477 µM; in the experiment with BA/F3 (insSVD) cells, 0.0498 µM.
For `CN(C)C/C=C/C(=O)N1CCn2nc(-c3ccc(Cl)cc3F)c(-c3ccnc4[nH]ccc34)c2C1` [Example 103, (2E)-1-[2-(4-chloro-2-fluorophenyl)-3-(1H-pyrrolo[2,3-b]pyridin-4-yl)-6,7-dihydropyrazolo[1,5-a]pyrazin-5(4H)-yl]-4-(dimethylamino)but-2-en-1-one] the same measures were 0.0252 µM, 0.0037 µM and 0.122 µM.
For `C=CC(=O)N1CCn2nc(-c3ccc(Cl)cc3F)c(-c3ccnc4[nH]ccc34)c2C1` [Example 104, 1-[2-(4-chloro-2-fluorophenyl)-3-(1H-pyrrolo[2,3-b]pyridin-4-yl)-6,7-dihydropyrazolo[1,5-a]pyrazin-5(4H)-yl]prop-2-en-1-one], the IC50 in experiment [1] was 0.00909 µM; in experiment [2], 0.00166 µM; in the experiment with BA/F3 (insSVD) cells, 0.032 µM.
In the same order, the values of `C=CC(=O)N1CCn2nc(-c3ccc(F)c4ccoc34)c(-c3ccncc3)c2C1` [Example 105, 1-[2-(4-fluoro-1-benzofuran-7-yl)-3-(pyridin-4-yl)-6,7-dihydropyrazolo[1,5-a]pyrazin-5(4H)-yl]prop-2-en-1-one] are 0.00157 µM, 0.00148 µM and 0.233 µM.
In the same order, the values of `C=CC(=O)N1CCn2nc(-c3ccc(F)c4ccccc34)c(-c3ccncc3)c2C1` [Example 106, 1-[2-(4-fluoronaphthalen-1-yl)-3-(pyridin-4-yl)-6,7-dihydropyrazolo[1,5-a]pyrazin-5(4H)-yl]prop-2-en-1-one] are 0.000546 µM, 0.000528 µM and 0.214 µM.
For `C=CC(=O)N1CCn2nc(-c3cccc4ccoc34)c(-c3ccncc3)c2C1` [Example 107] the same measures were 0.000564 µM, 0.000844 µM and 0.0414 µM.
For `C=CC(=O)N1CCn2nc(-c3ccc4c(C)c[nH]c4c3)c(-c3ccncc3)c2C1` [Example 108, 1-[2-(3-methyl-1H-indol-6-yl)-3-(pyridin-4-yl)-6,7-dihydropyrazolo[1,5-a]pyrazin-5(4H)-yl]prop-2-en-1-one], the IC50 in experiment [1] is 0.000425 µM; in experiment [2], 0.000351 µM; in the experiment with BA/F3 (insSVD) cells, 0.0333 µM.
For `C=CC(=O)N1CCn2nc(-c3cc4ccccc4cc3F)c(-c3ccncc3)c2C1` [Example 109, 1-[2-(3-fluoronaphthalen-2-yl)-3-(pyridin-4-yl)-6,7-dihydropyrazolo[1,5-a]pyrazin-5(4H)-yl]prop-2-en-1-one] the same measures were 0.000149 µM, 0.000111 µM and 0.042 µM.
With `C=CC(=O)N1CCn2nc(-c3ccc(C)cc3F)c(-c3ccncc3)c2C1` [Example 110, 1-[2-(2-fluoro-4-methylphenyl)-3-(pyridin-4-yl)-6,7-dihydropyrazolo[1,5-a]pyrazin-5(4H)-yl]prop-2-en-1-one], the IC50 in experiment [1] came to 0.00193 µM; in experiment [2] it was 0.00075 µM; with BA/F3 (insSVD) cells it was 0.0332 µM.
Take `C=CC(=O)N1CCn2nc(-c3ccc4ccccc4c3F)c(-c3ccncc3)c2C1` [Example 111, 1-[2-(1-fluoronaphthalen-2-yl)-3-(pyridin-4-yl)-6,7-dihydropyrazolo[1,5-a]pyrazin-5(4H)-yl]prop-2-en-1-one]: the IC50 in experiment [1] amounted to 0.000259 µM; in experiment [2], 0.00013 µM; in the experiment on BA/F3 (insSVD) cells, 0.0275 µM.
In the same order, the values of `C=CC(=O)N1CCn2nc(-c3cc4ccoc4cc3F)c(-c3ccncc3)c2C1` [Example 112, 1-[2-(6-fluoro-1-benzofuran-5-yl)-3-(pyridin-4-yl)-6,7-dihydropyrazolo[1,5-a]pyrazin-5(4H)-yl]prop-2-en-1-one] are 0.000448 µM, 0.000196 µM and 0.0203 µM.
For `C=CC(=O)N1CCn2nc(-c3ccc(C)cc3O)c(-c3ccncc3)c2C1` [Example 113, 1-[2-(2-hydroxy-4-methylphenyl)-3-(pyridin-4-yl)-6,7-dihydropyrazolo[1,5-a]pyrazin-5(4H)-yl]prop-2-en-1-one] the same measures were 0.00391 µM, 0.00176 µM and 0.0555 µM.
In the same order, the values of `C=CC(=O)N1CCn2nc(-c3ccc4cc[nH]c4c3F)c(-c3ccncc3)c2C1` [Example 114] are 0.000218 µM, 0.000144 µM and 0.0137 µM.
On to `C=CC(=O)N1CCn2nc(-c3ccc(Cl)cc3Cl)c(-c3ccncc3)c2C1` [Example 115, 1-[2-(2,4-dichlorophenyl)-3-(pyridin-4-yl)-6,7-dihydropyrazolo[1,5-a]pyrazin-5(4H)-yl]prop-2-en-1-one], for which the IC50 in experiment [1] was 0.000949 µM; in experiment [2], 0.00022 µM; in the experiment on BA/F3 (insSVD) cells, 0.0422 µM.
For `C=CC(=O)N1CCn2nc(-c3ccc(Cl)cc3OC)c(-c3ccncc3)c2C1` [Example 116, 1-[2-(4-chloro-2-methoxyphenyl)-3-(pyridin-4-yl)-6,7-dihydropyrazolo[1,5-a]pyrazin-5(4H)-yl]prop-2-en-1-one] the same measures were 0.0115 µM, 0.00838 µM and 0.635 µM.
In the same order, the values of `C=CC(=O)N1CCn2nc(-c3ccc(Cl)cc3C)c(-c3ccncc3)c2C1` [Example 117, 1-[2-(4-chloro-2-methylphenyl)-3-(pyridin-4-yl)-6,7-dihydropyrazolo[1,5-a]pyrazin-5(4H)-yl]prop-2-en-1-one] are 0.00186 µM, 0.000384 µM and 0.0545 µM.
In the same order, the values of `C=CC(=O)N1CCn2nc(-c3ccc(Cl)c(C#N)c3)c(-c3ccncc3)c2C1` [Example 118, 2-chloro-5-[5-(prop-2-enoyl)-3-(pyridin-4-yl)-4,5,6,7-tetrahydropyrazolo[1,5-a]pyrazin-2-yl]benzonitrile] are 0.0049 µM, 0.00855 µM and 0.183 µM.
As to `C=CC(=O)N1CCn2nc(-c3ccc(F)c(C#N)c3)c(-c3ccncc3)c2C1` [Example 119, 2-fluoro-5-[5-(prop-2-enoyl)-3-(pyridin-4-yl)-4,5,6,7-tetrahydropyrazolo[1,5-a]pyrazin-2-yl]benzonitrile], the IC50 in experiment [1] was found to be 0.00703 µM; in experiment [2] it was 0.0232 µM; with BA/F3 (insSVD) cells, 0.153 µM.

A word on the IC50: it is the concentration that inhibits the measured activity by half. Higher therefore signals lower potency.
